Residues, ends and D or L forms follow the SMILES beside them. *: point of attachment. Cbz = O=C(OCc1ccccc1)*

The test system of experiment [1] is mouse tracheal epithelial (MTE) cells. In words: Total GSH measurement (DTNB assay) in MTE cells. Format: cell-based. The method, then: It has been previously shown that the pleotropic cytokine IL1B augments glycolysis in lung epithelial cells, and that interleukin 1B (IL1B) is linked to oxidative stress. The pentose phosphate pathway, an offshoot of glycolysis, regulates the redox environment by providing nicotinamide adenine dinucleotide phosphate (NADPH) reducing equivalents necessary for glutathione (GSH) homeostasis. The effects of GSH in response to IL1B were examined. Briefly, GSH was measured using a 5,5′-dithio-bis (2-nitrobenzoic acid) (DTNB) assay in both control and IL1B-stimulated mouse tracheal epithelial cells. […] Statistics on the left panel represent the total GSH levels, without differentiating between labeled and unlabeled portions of GSH (P-value*<0.05, ****<0.0001).
(§1) A regulator of GSH homeostasis is the transporter system xC-, which exports glutamate and concomitantly imports cystine in a 1:1 ratio. Once inside the cells, cystine is reduced to two cysteines, the latter being the rate limiting amino acid required for GSH synthesis. These relationships were examined further. […] To address whether IL1B-induced increases in GSH are system xC- dependent, two system xC- inhibitors, erastin (Er) and sulfasalazine (SAS) were used. Cells were pretreated for one hour, followed by IL1B treatment for 24 hours. Then, GSH levels were measured in cells exposed to increasing doses of Er or SAS (FIG. 2G). Extracellular glutamate levels in cell culture supernatant of cells pretreated with 0.5 micromolar Er (left) or 100 micromolar SAS (right) for 1 hour before IL1B stimulation were also measured (FIG. 2H). […] System xC- inhibition is known to induce ferroptosis, an iron-dependent mode of cell death characterized by increased lipid peroxidation. However, no changes in cell viability using erastin (5 micromolar) or sulfasalazine (500 micromolar) were detected (FIG. 2I; P-value*<0.05, ***<0.001, ****<0.0001).
(§2) Primary mouse tracheal epithelial (MTE) cells were isolated from C57BL/6NJ wild-type or C57BL6/NJ mice lacking Glrx1 gene and cultured. Cells were grown on collagen coated plastic plates or transwell inserts with media change every 2 days until confluency. For interleukin 1B (IL1B) treatment: cells were incubated in plain Dulbecco's Modified Eagle Medium (DMEM): F12 media containing 6 mM glucose and 2 mM glutamine overnight followed by stimulation with 10 ng/ml IL1B or 0.1% bovine serum albumin (BSA) in phosphate buffered saline (PBS) (vehicle control) for 24 hours. Treatment with crastin, sulfasalazine or BSO occurred 1 hour before IL1B stimulation. Media and cells were collected for further analysis. For growing H522 and OTUB1-CRISPR-H522 cells: Roswell Park Memorial Institute (RPMI) media supplemented with 10% fetal bovine serum (FBS) and 1% pen/strep was used to grow the cells. Plasmid over-expression and OTUB1 knock-down experiments were done when cells were 60-70% confluent.
Cell lysates were prepared in 100 mM potassium phosphate buffer containing 0.6% sulfosalicylic acid, 1 mM ethylenediaminetetraacetic acid (EDTA) and 0.01% triton-x-100. To measure total glutathione (GSH), equal amounts of proteins were incubated with 3 micromolar 5,5′-dithio-bis (2-nitrobenzoic acid) (DTNB) reagent and 2.25 microgram/ml glutathione reductase followed by the addition of 240 micromolar Nicotinamide adenine dinucleotide phosphate (NADPH). Kinetic absorbance was measured every minute at 412 nm for 20 minutes. […]

For experiment [2] the test system is unchanged. Briefly: Extracellular glutamate in cell culture supernatant of MTE cells. Format: cell-based.
Text: as §1, §2
Glutamate in media was measured using Biovision kit following manufacturer's protocol.

A further experiment concerns SLC7A11. In words: SLC7A11 non-reducing Western blot in MTE cells. Format: cell-based, mouse. The following applies: MG132 5 micrograms/ml, 24 hours. The method, then: OTUB1 was previously shown to interfere with ubiquitination and subsequent proteasomal degradation of SLC7A11. A SLC7A11 non-reducing Western blot using MTE cells pretreated with 5 micrograms/ml MG132 or 10 ng/ml IL1B for 24 hours with ACTB used as a loading control was performed (FIG. 7A). In addition, an assessment of GSH levels in MG132-(5 micrograms/ml, 24 hours) (FIG. 7B, left) or bortezomib-(FIG. 7B, right) (0.3 micromolar, 24 hours) treated MTE cells was undertaken (P-value***<0.001, ****<0.0001). Extracellular glutamate levels in MG132-treated MTE cells were also assessed (5 micrograms/ml, 24 hours) (FIG. 7C) (P-value***<0.001, ****<0.0001). The proteasome inhibitors MG132 or bortezomib increased SCL7A11, GSH and extracellular glutamate levels in tracheal epithelial cells (FIGS. 7A-7C), identifying the importance of proteasomal degradation of SLC7A11 in regulating system xC- and glutathione levels.
Bio-Rad DC protein estimation kit was used to determine protein concentration in cell lysates. Equal amounts of proteins were resolved using sodium dodecyl sulfate (SDS)-polyacrylamide gel electrophoresis and transferred to polyvinylidene difluoride (PVDF) membranes, blocked in 5% BSA and incubated with primary antibodies overnight. Membranes were subsequently incubated with peroxidase-conjugated secondary antibodies for one hour and then visualized using chemiluminescence.

For experiment [3], the system named is mouse tracheal epithelial (MTE) cells. Briefly: Calcein AM cell viability in MTE cells. The experiment is classed as cell-based. The following applies: sulfasalazine 500 micromolar.
Text: Invitrogen Live/Dead viability/cytotoxicity kit was used to measure cell viability according to manufacturer's instruction. Data was expressed as percentage survival compared to control untreated cells.
Experiment [4] shares this test system. In words: Total PSSG in MTE cells treated with recombinant GLRX. Format: cell-based. The settings on record: direct administration of recombinant protein to MTE cells. As for the experimental part: OTUB1 was one of the PSSG targets detected in IL1B-stimulated epithelial cells raising the possibility that S-glutathionylation of OTUB1 affects the stability of SLC7A11. To investigate this, immunoprecipitation of GSH followed by Western Blotting of OTUB1 in MTE cells treated with vehicle or IL1B was performed. Dithiothreitol (DTT) was incubated with cell lysates prior to immunoprecipitation as a negative control. OTUB1 levels from whole cell lysates were used as the input control. Increases in OTUB1 S-glutathionylation (OTUB1-SSG) in response to IL1B were observed, with further increases occurring in cells lacking Glrx (FIG. 4G), consistent with the role of GLRX as a deglutathionylating enzyme. Western blots were performed using cells treated with the WT- or C23S-mutant GLRX recombinant protein to examine the presence of glutaredoxin (FIG. 4H) and total PSSG (FIG. 4I) (P-value*<0.05, **<0.01, ***<0.001, ****<0.0001). […] Glutathione was evaluated in MTE cells treated with recombinant WT- or C23S-mutant GLRX (FIG. 4J) and glutamate in cell culture supernatant of MTE cells treated with WT or the C23S mutant GLRX was also evaluated (FIG. 4K). […]
Cell lysates were prepared in 100 mM potassium phosphate buffer containing 0.6% sulfosalicylic acid, 1 mM ethylenediaminetetraacetic acid (EDTA) and 0.01% triton-x-100. […] Kinetic absorbance was measured every minute at 412 nm for 20 minutes. […]

Another experiment relates to OTUB1. Briefly: OTUB1-SSG: GSH immunoprecipitation followed by OTUB1 Western blot. The experiment is classed as cell-based, mouse. The settings on record: cells treated with recombinant protein. The method, then: OTUB1 was one of the PSSG targets detected in IL1B-stimulated epithelial cells raising the possibility that S-glutathionylation of OTUB1 affects the stability of SLC7A11. To investigate this, immunoprecipitation of GSH followed by Western Blotting of OTUB1 in MTE cells treated with vehicle or IL1B was performed. Dithiothreitol (DTT) was incubated with cell lysates prior to immunoprecipitation as a negative control. OTUB1 levels from whole cell lysates were used as the input control. Increases in OTUB1 S-glutathionylation (OTUB1-SSG) in response to IL1B were observed, with further increases occurring in cells lacking Glrx (FIG. 4G), consistent with the role of GLRX as a deglutathionylating enzyme. Western blots were performed using cells treated with the WT- or C23S-mutant GLRX recombinant protein to examine the presence of glutaredoxin (FIG. 4H) and total PSSG (FIG. 4I) (P-value*<0.05, **<0.01, ***<0.001, ****<0.0001). GAPDH was used as a loading control. Glutathione was evaluated in MTE cells treated with recombinant WT- or C23S-mutant GLRX (FIG. 4J) and glutamate in cell culture supernatant of MTE cells treated with WT or the C23S mutant GLRX was also evaluated (FIG. 4K). […]
(In general: Immunoblotting shows a protein as a band on a membrane.)

[5] abbreviates: MG132 5 micrograms/ml, 24 hours, MTE cells.
The mark [6] stands for this setting: direct administration of recombinant protein to MTE cells.

For the molecule `CC(C)C[C@@H](C=O)NC(=O)[C@H](CC(C)C)NC(=O)[C@H](CC(C)C)NC(=O)OCc1ccccc1` [MG132] (Cbz-Leu-Leu-Leu-aldehyde), the GSH levels result in experiment [1] (setting [5]) is recorded as “increased”. Besides, the extracellular glutamate levels entry in experiment [2] (setting [5]) is given as “increased”. In addition, the SLC7A11 levels entry with SLC7A11 is “increased”.
In the case of `CC(C)C[C@H](NC(=O)[C@H](Cc1ccccc1)NC(=O)c1cnccn1)B(O)O` [bortezomib], the GSH levels result in experiment [1] (bortezomib 0.3 micromolar, 24 hours, MTE cells) is recorded as “increased”.
`O=C(O)c1cc(/N=N/c2ccc(S(=O)(=O)Nc3ccccn3)cc2)ccc1O` [sulfasalazine]: in experiment [1] (MTE cells pretreated 1 hour with increasing doses of Er or SAS, then IL1B 24 hours), the “IL1B-induced increases in GSH” value was “significantly decreased”. The “IL1B-induced extracellular glutamate levels” value in experiment [2] (MTE cells pretreated with 100 micromolar SAS for 1 hour before IL1B stimulation) was “significantly decreased”. Also, in experiment [3], the cell viability result is “no changes”.

B1: C23S GLRX: catalytically inactive C23S mutant GLRX recombinant protein (protein, UniProt P35754 2-106, looked up, variant C23S)
Glutaredoxin-1: AQEFVNCKIQPGKVVVFIKPTSPYCRRAQEILSQLPIKQGLLEFVDITATNHTNEIQDYLQQLTGARTVPRVFIGKDCIGGCSDLVSLQQSGELLTRLKQIGALQ
For the molecule B1, in experiment [1] (setting [6]), the GSH levels entry is given as “did not elicit these effects”. For the same molecule, the extracellular glutamate entry in experiment [2] (setting [6]) is reported as “did not elicit these effects”. The “overall PSSG” value in experiment [4] is given as “did not elicit these effects”. The “OTUB1-SSG (OTUB1 S-glutathionylation)” value in the experiment with OTUB1 is on record as “not”.

These data come from patent US20260027190A1, “OVARIAN TUMOR DEUBIQUITINASE OXIDATION AND USES THEREOF” (The University of Vermont and State Agricultural College, priority 2022, published 2026).
